# Data published in article PMC8413292, “Small-molecule polymerase inhibitor protects non-human primates from measles and reduces shedding” (Nature Communications, 2021).
# Values joined by “and” are separate entries in the source; they are usually repeats but may differ in a detail not shown here. Equal entries are not always repeated.
# Test system: MV/FrankfurtMain.DEU/17.11 (genotype D8)
# Test: White blood cell counts from whole blood
# Format: in vivo, squirrel monkeys (Saimiri sciureus)
# Conditions: for Cells [10^3/mm^3], white blood cells / Cells/ml, white blood cells / Counted Cells (Total), white blood cells: individual animals
# Description: White blood cell counts, viral load quantification in PBMCs, and quantification of neutralizing antibody titers were performed as follows: for white blood cell counts, blood was diluted 1:100 in 3% acetic acid and cells were counted using a Neubauer chamber. For viral load quantification in PBMCs, blood was centrifuged at 3000 rpm for 15 min and serum was frozen at −20 °C until further use. Red blood cell lysis was performed and the remaining PBMCs were counted using a Neubauer chamber. Viral titers in PBMCs were quantified in quadruplicates using limited dilution method and calculated as TCID50/10^6 PBMCs. Neutralizing antibody titers were quantified by incubating MeV with 2-fold serial dilutions of the respective serum for 20 min at room temperature in quadruplicates. Vero/hSLAM cells were added and incubated for 3 days at 37 °C. Neutralizing antibody titers are expressed as the reciprocal of the highest serum dilution showing no signs of infection. For virus titration from throat swabs, swabs were placed in 150 μl DMEM with 3% penicillin/streptomycin and the titer was quantified by limited dilution method.
smiles,measurement,setting,value
Cn1nc(C(F)(F)F)cc1C(=O)Nc1ccc(S(=O)(=O)N2CCCC[C@H]2CCN2CCOCC2)cc1 [ERDRP-0519],WBC group mean (Mean 2),"prophylactic group, Row 3 (7 dpi)",5.875 10^3cells/mm^3
same,WBC group mean (Mean 2),"prophylactic group, Row 4 (10 dpi)",4.125 10^3cells/mm^3
same,WBC group mean (Mean 2),"prophylactic group, Row 5 (14 dpi)",4.25 10^3cells/mm^3
same,WBC group mean (Mean 2),"prophylactic group, Row 6 (17 dpi)",4.583 10^3cells/mm^3
same,WBC group mean (Mean 2),"prophylactic group, Row 7 (21 dpi)",4.333 10^3cells/mm^3
same,"Cells [10^3/mm^3], white blood cells","therapeutic (d3) group, 0 dpi",4.25 10^3/mm^3 and 7.75 10^3/mm^3 and 4.75 10^3/mm^3 and 5.75 10^3/mm^3 and 5 10^3/mm^3
same,"Cells/ml, white blood cells","therapeutic (d3) group, 0 dpi",7.75E+06 Cells/ml and 4.75E+06 Cells/ml and 5.75E+06 Cells/ml and 5.00E+06 Cells/ml and 4.25E+06 Cells/ml
same,"Counted Cells (Total), white blood cells","therapeutic (d3) group, 0 dpi",17 and 31 and 19 and 23 and 20
same,"Cells [10^3/mm^3], white blood cells","therapeutic (d3) group, 3 dpi",8.75 10^3/mm^3 and 8.25 10^3/mm^3 (2×) and 6.5 10^3/mm^3 and 5 10^3/mm^3 and 4.5 10^3/mm^3
same,"Cells/ml, white blood cells","therapeutic (d3) group, 3 dpi",8.25E+06 Cells/ml (2×) and 6.50E+06 Cells/ml and 5.00E+06 Cells/ml and 4.50E+06 Cells/ml and 8.75E+06 Cells/ml
same,"Counted Cells (Total), white blood cells","therapeutic (d3) group, 3 dpi",35 and 33 (2×) and 26 and 20 and 18
same,"Cells [10^3/mm^3], white blood cells","therapeutic (d3) group, 7 dpi",3.25 10^3/mm^3 and 8.25 10^3/mm^3 and 4.75 10^3/mm^3 and 3.75 10^3/mm^3 and 7.25 10^3/mm^3 and 2.25 10^3/mm^3
same,"Cells/ml, white blood cells","therapeutic (d3) group, 7 dpi",8.25E+06 Cells/ml and 4.75E+06 Cells/ml and 3.75E+06 Cells/ml and 7.25E+06 Cells/ml and 2.25E+06 Cells/ml and 3.25E+06 Cells/ml
same,"Counted Cells (Total), white blood cells","therapeutic (d3) group, 7 dpi",13 and 33 and 19 and 15 and 29 and 9
same,"Cells [10^3/mm^3], white blood cells","therapeutic (d3) group, 10 dpi",1.75 10^3/mm^3 and 2.75 10^3/mm^3 and 3 10^3/mm^3 and 3.75 10^3/mm^3 and 4.5 10^3/mm^3 and 4.25 10^3/mm^3
same,"Cells/ml, white blood cells","therapeutic (d3) group, 10 dpi",2.75E+06 Cells/ml and 3.00E+06 Cells/ml and 3.75E+06 Cells/ml and 4.50E+06 Cells/ml and 4.25E+06 Cells/ml and 1.75E+06 Cells/ml
same,"Counted Cells (Total), white blood cells","therapeutic (d3) group, 10 dpi",7 and 11 and 12 and 15 and 18 and 17
same,"Cells [10^3/mm^3], white blood cells","therapeutic (d3) group, 14 dpi",6 10^3/mm^3 and 7.5 10^3/mm^3 and 5.5 10^3/mm^3 and 10.75 10^3/mm^3 and 12.75 10^3/mm^3 and 3.25 10^3/mm^3
same,"Cells/ml, white blood cells","therapeutic (d3) group, 14 dpi",7.50E+06 Cells/ml and 5.50E+06 Cells/ml and 1.08E+07 Cells/ml and 1.28E+07 Cells/ml and 3.25E+06 Cells/ml and 6.00E+06 Cells/ml
same,"Counted Cells (Total), white blood cells","therapeutic (d3) group, 14 dpi",24 and 30 and 22 and 43 and 51 and 13
same,"Cells [10^3/mm^3], white blood cells","therapeutic (d3) group, 17 dpi",4.25 10^3/mm^3 and 5 10^3/mm^3 and 4.75 10^3/mm^3 and 4.5 10^3/mm^3 and 3.75 10^3/mm^3
same,"Cells/ml, white blood cells","therapeutic (d3) group, 17 dpi",5.00E+06 Cells/ml and 4.75E+06 Cells/ml and 4.50E+06 Cells/ml and 3.75E+06 Cells/ml and 4.25E+06 Cells/ml
same,"Counted Cells (Total), white blood cells","therapeutic (d3) group, 17 dpi",17 and 20 and 19 and 18 and 15
same,"Cells [10^3/mm^3], white blood cells","therapeutic (d3) group, 21 dpi",4.5 10^3/mm^3 and 3.5 10^3/mm^3 and 10.25 10^3/mm^3 and 7.5 10^3/mm^3 and 2.25 10^3/mm^3
same,"Cells/ml, white blood cells","therapeutic (d3) group, 21 dpi",3.50E+06 Cells/ml and 1.02E+07 Cells/ml and 7.50E+06 Cells/ml and 2.25E+06 Cells/ml and 4.50E+06 Cells/ml
same,"Counted Cells (Total), white blood cells","therapeutic (d3) group, 21 dpi",18 and 14 and 41 and 30 and 9
same,WBC group mean (Mean 2),"therapeutic (d3) group, Row 1 (0 dpi)",5.5 10^3cells/mm^3
same,WBC group mean (Mean 2),"therapeutic (d3) group, Row 2 (3 dpi)",6.875 10^3cells/mm^3
same,WBC group mean (Mean 2),"therapeutic (d3) group, Row 3 (7 dpi)",4.917 10^3cells/mm^3
same,WBC group mean (Mean 2),"therapeutic (d3) group, Row 4 (10 dpi)",3.333 10^3cells/mm^3
same,WBC group mean (Mean 2),"therapeutic (d3) group, Row 5 (14 dpi)",7.642 10^3cells/mm^3
same,WBC group mean (Mean 2),"therapeutic (d3) group, Row 6 (17 dpi)",4.45 10^3cells/mm^3
same,WBC group mean (Mean 2),"therapeutic (d3) group, Row 7 (21 dpi)",5.61 10^3cells/mm^3
same,"Cells [10^3/mm^3], white blood cells","therapeutic (d7) group, 0 dpi",2.75 10^3/mm^3 and 3 10^3/mm^3 (2×) and 7.25 10^3/mm^3 and 5.25 10^3/mm^3
same,"Cells/ml, white blood cells","therapeutic (d7) group, 0 dpi",3.00E+06 Cells/ml (2×) and 7.25E+06 Cells/ml and 5.25E+06 Cells/ml and 2.75E+06 Cells/ml
same,"Counted Cells (Total), white blood cells","therapeutic (d7) group, 0 dpi",11 and 12 (2×) and 29 and 21
same,"Cells [10^3/mm^3], white blood cells","therapeutic (d7) group, 3 dpi",7.5 10^3/mm^3 and 12.5 10^3/mm^3 and 6.5 10^3/mm^3 and 7.75 10^3/mm^3 (2×) and 8.75 10^3/mm^3
same,"Cells/ml, white blood cells","therapeutic (d7) group, 3 dpi",1.25E+07 Cells/ml and 6.50E+06 Cells/ml and 7.75E+06 Cells/ml (2×) and 8.75E+06 Cells/ml and 7.50E+06 Cells/ml
same,"Counted Cells (Total), white blood cells","therapeutic (d7) group, 3 dpi",30 and 50 and 26 and 31 (2×) and 35
same,"Cells [10^3/mm^3], white blood cells","therapeutic (d7) group, 7 dpi",4 10^3/mm^3 (3×) and 5 10^3/mm^3 and 3 10^3/mm^3 and 3.25 10^3/mm^3
same,"Cells/ml, white blood cells","therapeutic (d7) group, 7 dpi",4.00E+06 Cells/ml (3×) and 5.00E+06 Cells/ml and 3.00E+06 Cells/ml and 3.25E+06 Cells/ml
same,"Counted Cells (Total), white blood cells","therapeutic (d7) group, 7 dpi",16 (3×) and 20 and 12 and 13
same,"Cells [10^3/mm^3], white blood cells","therapeutic (d7) group, 10 dpi",3 10^3/mm^3 and 2.75 10^3/mm^3 and 2.5 10^3/mm^3
same,"Cells/ml, white blood cells","therapeutic (d7) group, 10 dpi",2.75E+06 Cells/ml and 2.50E+06 Cells/ml and 3.00E+06 Cells/ml
same,"Counted Cells (Total), white blood cells","therapeutic (d7) group, 10 dpi",12 and 11 and 10
same,WBC group mean (Mean 2),"therapeutic (d7) group, Row 1 (0 dpi)",4.25 10^3cells/mm^3
same,WBC group mean (Mean 2),"therapeutic (d7) group, Row 2 (3 dpi)",8.458 10^3cells/mm^3
same,WBC group mean (Mean 2),"therapeutic (d7) group, Row 3 (7 dpi)",3.875 10^3cells/mm^3
same,WBC group mean (Mean 2),"therapeutic (d7) group, Row 4 (10 dpi)",2.708 10^3cells/mm^3
same,WBC group mean (Mean 2),"therapeutic (d7) group, Row 5 (14 dpi)",3.125 10^3cells/mm^3
same,WBC group mean (Mean 2),"therapeutic (d7) group, Row 6 (17 dpi)",4.25 10^3cells/mm^3
same,WBC group mean (Mean 2),"therapeutic (d7) group, Row 7 (21 dpi)",5.083 10^3cells/mm^3
